In PMC9644403, “L-type Amino Acid Transporter 1 Utilizing Ferulic Acid Derivatives Show Increased Drug Delivery in the Mouse Pancreas Along with Decreased Lipid Peroxidation and Prostaglandin Production” (Molecular Pharmaceutics, 2022):

Tests used:
human plasma = test: Coagulation parameters (PT, INR, APTT, TT) in human plasma
Protocol: To assess the safety of the LAT1 derivatives in the human blood circulation system, the basic coagulation parameters, prothrombin time (PT), activated partial thromboplastin time (APTT), thrombin time (TT), and international normalized ratio (INR) were determined from human plasma in the presence of FA, D1, and D2. The parameters were studied using a coagulometer (CoagChrom-3003 Bio-Ksel, Grudziądz, Poland), with the previously described methods.[25],[31] The following reagents were used in the basic coagulation studies: Bio-Ksel System APTT reagent and calcium chloride, Bio-Ksel PT plus reagent (thromboplastin and solvent), and thrombin (3.0 UNIH/mL), (Bio-Ksel, Grudziądz, Poland). The experiments were performed using citrated human plasma. Control samples consisting of drug solvents [distilled water and methanol mixture (1:2 v/v)] were conducted. The methods were validated using normal plasma (Bio-Ksel, Grudziądz, Poland). Coefficients of variability (CV) were counted (n = 5): CV(PT) = 5.34%, CV(APTT) = 2.61%, CV(TT) = 1.82%. Following reference values for each test were applied: PT: 9.7–14.6 s; APTT: 26.7–40.0 s; and TT: 14.0–18.0 s for 3.0 UNIH/mL of thrombin.

[1] = RBC lysis assay (hemolysis); type: cell-based; conditions: 2% erythrocyte (RBC) suspension, human RBCs, 37 °C, Triton X = 100%, control 2.08 ± 0.15%, read-out: hemolysis rate
Protocol: (§1) To further evaluate the safety of derivatives in human blood, the effects of FA, D1, and D2 on hemolysis were studied using a previously described protocol.[31] Shortly, freshly collected erythrocytes were washed three times with 1 mL of 0.9% saline (Sigma-Aldrich, Germany). Subsequently, 2% RBC suspension was prepared by diluting 1 mL of erythrocytes in 50 mL of 0.9% saline. FA, D1, and D2 (1–100 μM) were incubated with the RBC suspension at 37 °C for 1 h. Additionally, negative controls containing 0.9% NaCl and positive controls with Triton X-100 (Polish Chemical Reagents, Poland) were studied. After incubation, the samples were centrifuged at 3 000 rpm for 10 min, and the absorbance values were measured from the collected supernatants at the wavelength of 550 nm. Samples with Triton X (positive control) represented 100% hemolysis. Results of the studies are presented as a percentage of released hemoglobin. The counted CV was 8.1% (n = 5). Additionally, the influence of FA and its derivatives (25–100 μM) on RBC morphology was studied using a phase contrast Opta-Tech inverted microscope. The morphology was analyzed using a dedicated OptaView 7 software (Opta-Tech, Warsaw, Poland).

human erythrocytes = test: Erythrocyte morphology, phase-contrast microscopy; type: cell-based; conditions: tested 25–100 μM
Protocol: as §1

[2] = HUVEC viability, WST-1 assay; type: cell-based, human; conditions: human, HUVEC cells; WST-1, 24 h, % of control, mean ± SD (n = 6–8)
Protocol: (§2) As a third in vitro toxicity study in the human blood circulation system, the effects of FA, D1, and D2 on the viability of human umbilical vein endothelial cells (HUVECs; RRID CVCL_2959; Lonza, Italy; Cat. no. CC-2517) were determined using the WST-1 assay (Takara, Takara Bio Europe, Europe, Saint-Germain-en-Laye, France), according to the previously published protocol.[32] Briefly, the cells were cultured according to the manufacturer’s guidelines with the following ingredients: EGM-2-medium + bullet kit (Lonza, Clonetics, Italy), accutase (Sigma-Aldrich, Germany), and HEPES-buffered saline solution (Lonza, Basel, Switzerland). For the assay, the cells were seeded at the density of 7 500 HUVECs per well on 96-well plates and cultured for 24 h to obtain 70% confluency. Subsequently, the cells were treated with studied compounds in multiplicate (n = 6–8) at the concentration of 0.1–100 μM in the growth medium for 24 h (37 °C, 5% CO2). Cells with untreated growth medium represented 100% viability, whereas cells treated with medium containing 0.5% (v/v) methanol served as a negative control for drug solvent. After treating cells for 24 h, medium was removed, the cells were washed with the culture medium (100 μl/well), and 100 μL of WST-1 reagent dissolved in culture medium was added into each well. The plates were incubated at 37 °C with 5% CO2 for 2 h, after which absorbance values were measured at the 450 nm wavelength using a microplate reader (iMARK, Bio-Rad). Additionally, the effects of treatments on HUVEC morphology were examined microscopically using a phase-contrast Opta-Tech inverted microscope equipped with OptaView 7 software (Opta-Tech, Warsaw, Poland) for image analysis.

HUVECs = test: HUVEC morphology, phase-contrast microscopy; type: cell-based, human; conditions: 24 h incubation
Protocol: as §2

[3] = previous in vitro bioconversion studies; cited from earlier work

effect on APTT (human plasma; 100 μM)	concentration at which anisocytosis with formation of macrocytes was observed (human erythrocytes) [µM]	concentration at which few stomatocytes were detected (human erythrocytes) [µM]	concentration at which formation of echinocytes was observed (human erythrocytes) [µM]	HUVEC morphology at 50 μM (HUVECs)	Structure (SMILES)	hemolysis at 1 h, 100 µM [1] [%]	viability at 24 h, 50 µM [2] [%]	viability at 24 h, 100 µM [2] [%]	HUVEC morphology at 100 μM (HUVECs)	HUVEC morphology at 25–50 μM (HUVECs)	release of FA in the mouse liver [3]	effect on INR (human plasma)	prothrombin time (PT) (human plasma; 100 μM, control 13.2 ± 1.3 s) [s]
prolonged the APTT	50 to 100	100			COc1cc(C=CC(=O)NCc2cccc(CC(N)C(=O)O)c2)ccc1O (stereo not shown) [derivative 1]	3.58 ± 0.69	89 ± 7.27	80.7 ± 4.26	slightly more rounded, bright dead cells were observed	did not cause significant changes in HUVEC morphology	neither D1 nor D2 released FA		
			50 to 100	first brighter cells appearing	COc1cc(/C=C/C(=O)Nc2cccc(C[C@H](N)C(=O)O)c2)ccc1O [derivative 2]	1.97 ± 1.25	73.5 ± 14.7	60.3 ± 16.9	reduced the number of viable cells and cell density as well as caused an irregular shape with cytoplasm leakage		neither D1 nor D2 released FA		
					COc1cc(C=CC(=O)O)ccc1O [ferulic acid, 4-hydroxy-3-methoxycinnamic acid]	2.38 ± 1.84		62.6 ± 15	more elongated cells were seen	did not change cell morphology		increased INR	15.5 ± 0.4
